PMC4104029, “Mechanism of Action of Compound-13: An α1-Selective Small Molecule Activator of AMPK” (Chemistry & Biology, 2014)

Tests used:
[1] = tested on: isolated, full-length AMPKα1 and α2 subunits; assay: Isolated AMPKα subunit activity assay; format: biochemical, human; settings: C2 0–1000 nM, conditions as Figure 1B
Description: (§1) Supplemental Figure Legends:
(§2) Figure S1, related to Figures 1-3. Subunit composition of AMPK preparations used in this study. (A) Heterotrimeric AMPK complexes (10 ng) produced in both Sf9 (Sigma and Signalchem) and E.coli (in our laboratory) were analysed by Western blotting using isoform specific antibodies. Note that both the α2/α1-HOOK and α2/α1-LOOP chimeras are no longer recognised by the anti-α2 antibody as the epitope has been replaced (see Fig S4). (B) Heterotrimeric AMPK α2/α1 chimeric complexes expressed in E.coli (2 μg) were separated by SDS-PAGE and stained with Coomassie G-250. Arrows indicate the position of the […]
(§3) Figure S2, related to Figure 1. C2 has negligible effects on a panel of 138 protein kinases.
(§4) Kinase inhibition screen was performed by the International Centre for Kinase profiling (Dundee). Assays were performed in duplicate using 10 µM C2 and are representative of two independent screens. Results are shown in rank order as mean % activity compared with controls in the absence of compound ± SD. […]
(§5) Figure S3, related to Figure 2. […] Results are expressed as mean Pi incorporated in nmol.min-1.mg-1 ± SD. […] Results are expressed as fold increase in activity relative to controls in the absence of compound ± SD.
(§6) (E) C2 and AMP displace a GST-AMPKγ2 subunit fusion from ATP-γ-Sepharose. […] The presence of eluted AMPKγ2 was analysed by SDS-PAGE and staining with colloidal Coomassie. […]

[2] = tested on: panel of 138 protein kinases; assay: Kinase inhibition screen; format: biochemical; settings: 10 μM
Description: as §1, §2, §3, §4, §5, §6

human AMPK = tested on: human AMPK; set-up: method as in Gómez-Galeno et al., 2010; settings: isoform combination not specified; ref Gómez-Galeno et al., 2010; read-out: half-maximal effective concentration (EC50); cited from earlier work
whole-body lipogenesis = settings: among a series of prodrugs; ref Gómez-Galeno et al., 2010; cited from earlier work

SMILES | effect on activity [1] | effect on upstream kinases of AMPK ([2]; LKB1, CaMKKβ, and TAK1) | effect on kinase activity ([2]; includes AMPK-related kinase family) | EC50 (human AMPK) | inhibition of whole-body lipogenesis (whole-body lipogenesis)
O=P(O)(O)c1ccc(-c2cc(O)on2)o1 [Compound C2, 5-(5-hydroxyl-isoxazol-3-yl)-furan-2-phosphonic acid] | no effect | did not affect | majority were not affected | 6.3 nM | 
CC(C)C(=O)OCOP(=O)(OCOC(=O)C(C)C)c1ccc(C2=NOC(=O)C2)o1 [Compound C13] |  |  |  |  | most potent inhibition
